Patent US11541065B2, “Compositions and methods for treating brain injury” (UNM RAINFOREST INNOVATIONS, priority 2018, dated 2023)

Experiments:
Type in all cases: cell-based
[Ca^2+]i = Intracellular Ca^2+ by Fura2 imaging, rat neuronal cultures; settings: for effect on homocysteine-induced increase in Fura2 fluorescence ratio and [Ca^2+]i: rat neurons, somata and processes, L-homocysteine 50 μM 60 minutes, with EGTA 2 mM, DL-AP5 200 μM, NVP-AAM077 30 nM or Ro 25-6981 1 μM
Protocol: Embryos obtained from pregnant Sprague Dawley rats (16-17-day gestation) or wild type (WT) and GluN2A KO mice (15-16-day gestation) were used to establish primary cortical neuronal cultures as previously described (Poddar and Paul, 2009, J Neurochem 110:1095-1106; Poddar and Paul, 2013, J Neurochem 124:558-570; Poddar et al., 2017, J Neurochem 142:560-573). Neurons were grown on either (a) 35-mm culture dishes (MatTek Corp., Ashland, Mass.) coated overnight with poly-D-lysine (50 μg/ml) and laminin (10 μg/ml) for Ca^2+ imaging studies, (b) poly-D-lysine-coated 60 mm dishes (Corning BIOCOAT, Corning Inc., Corning, N.Y.) for biochemical studies, or (c) poly-D-lysine-coated 4-well culture slides (Corning BIOCOAT, Corning Inc., Corning, N.Y.) for cell death assay. Neurons were maintained in culture for 12-13 days before experiment. The cells were treated with freshly prepared L-homocysteine (50 μM) in Hank's balanced salt solution containing 50 μM of glycine (Lipton et al., 1997, Proceedings of the National Academy of Sciences of the United States of America 94:5923-5928; Poddar and Paul, 2009, J Neurochem 110:1095-1106; Poddar and Paul, 2013, J Neurochem 124:558-570; Poddar et al., 2017, J Neurochem 142:560-573) for the specified time periods. In a parallel series of experiments, cells were treated with glutamate (50 μM) for the specified time periods. Cells were then processed for live cell imaging, immunoblotting or cell death assay. In some experiments EGTA, DL-AP5, NVP-AAM077, Ro 25-6981 or PD98059 was added 15 minutes prior to L-homocysteine or glutamate treatment.
[Ca^2+]i in neurons was determined using the fluorescent indicator, Fura2-AM. Briefly, neurons were loaded with Fura2 (10 μM) in phenol red free Hank's balanced salt solution for 30 minutes at 37° C. followed by post-incubation for 20 minutes (Paul, S. and Connor, J. A., 2010, J Neurochem 114:1107-1118). Time lapse live cell imaging was performed following stimulation using a Nikon Ti Eclipse inverted microscope equipped with Tokai Hit stage top incubator maintained at 37° C. and infused with 95:5% air:CO2 mixture. Fields of 5-8 cells were imaged using a 40× oil immersion objective (Nikon). Fluorescence excitations (340 and 380 nm) were provided with Sutter LB-LS/30 Lambda xenon arc lamp and fluorescence emissions (510 nm) were captured using a CCD camera (Teledyne Photometries, Tucson, Ariz.). NIS Elements AR software was used for data acquisition and analysis. Ratiometric data (340/380 nm) from regions of interest were corrected for background and converted into estimates of [Ca^2+]i. as described previously (Paul, S. and Connor, J. A., 2010, J Neurochem 114:1107-1118) using the equation developed earlier (Grynkiewicz et al., 1985, J Biol Chem 260:3440-3450). Maximum and minimum fluorescence ratios were determined from Fura2 loaded cells treated with ionomycin (5 μM) in calcium containing medium (2 mM) or in calcium free media with EGTA (0.5 mM).

PGE2 = PGE2 release from rat neuronal cultures (enzyme immunoassay / ELISA of culture media); settings: for effect on homocysteine-induced PGE2 release: rat neurons, L-homocysteine 50 μM four hours, with DL-AP5 200 μM, MK801 10 μM, NVP-AAM077 30 nM, Ro 25-6981 1 μM, PD98059 15 μM, SB203580 5 μM, Bengamide B 500 nM or CAY10404 100 nM
Protocol: (§1) Neuron cultures were treated with or without L-homocysteine in the presence or absence of pharmacological inhibitors for the time period specified in each experiment. The medium was collected from each experimental plate and centrifuged at 1000 rpm for five minutes to remove cellular debris. Equal amounts (100 μl) of the supernatant from each sample were used to determine the amount of PGE2 using the PGE2 enzyme immunoassay kit according to the manufacturer's instructions. For measurement of cPLA2 activity, the neuronal cells from the above treated conditions were harvested in ice-cold Tris-buffered saline (pH7.4) containing sodium pyrophosphate as phosphatase inhibitor, sonicated three times with five-second bursts and two minutes on ice between intervals. The lysed cell suspensions were centrifuged at 10,000 rpm for 10 minutes and the supernatant removed. Equal amounts of protein from the supernatant (assessed using BCA protein estimation kit) were estimated for activity of cPLA2 using cPLA2 activity assay kit according to the manufacturer's protocol.
(§2) For measurement of PGE2 levels and MCP-1 levels released from neurons, culture medium was collected from each experimental plate and centrifuged at 1000 rpm for five minutes to remove cellular debris. Equal volume (100 μl) of the supernatant from each sample was used to determine PGE2 level using the PGE2 ELISA kit according to the manufacturer's instructions.

MCP-1 = MCP-1 expression and release from neuron cultures (enzyme immunoassay)
Protocol: (§3) For measurement of cPLA2 activity and MCP-1 levels in cell lysates, neuronal lysates were prepared by harvesting neurons in ice-cold Tris-buffered saline (pH 7.4) containing phosphatase inhibitor, sonicated three times in five-second bursts and placed on ice (two minutes) between each burst of sonication. The lysed cell suspensions were centrifuged at 10,000 rpm (10 minutes) and the supernatant was collected in another tube. Equal amounts of protein from the supernatant were processed for cPLA2 activity assay according to the manufacturer's protocol. Equal protein from the lysates were also used to estimate MCP-1 levels using an MCP-1 ELISA kit.
as §2

cPLA2 = cPLA2 activity in rat neuronal lysates (enzymatic assay); settings: for effect on homocysteine-mediated increase in cPLA2 activity: rat neurons, L-homocysteine 50 μM four hours, with MK801 10 μM, NVP-AAM077 30 nM, Ro 25-6981 1 μM, PD98059 15 μM or SB203580 5 μM
Protocol: as §1, §3

Row | SMILES | maximum increase in [Ca^2+]i vs control cells ([Ca^2+]i; rat neurons (soma), L-homocysteine 50 μM, by 60 minutes) | PGE2 levels released into the medium (PGE2; cortical neurons, L-homocysteine 50 μM, time course, alone) | expression and release of MCP-1 from neurons (MCP-1; L-homocysteine 50 μM, 0, two and four hours, alone) | cPLA2 activity (cPLA2; primary cortical neurons, L-homocysteine 50 μM, 0-6 hours, alone) | effect on homocysteine-induced increase in Fura2 fluorescence ratio and [Ca^2+]i ([Ca^2+]i) | effect on homocysteine-induced PGE2 release (PGE2) | effect on homocysteine-induced expression and release of MCP-1 (MCP-1; L-homocysteine 50 μM four hours, with DL-AP5 200 μM or NVP-AAM077 30 nM) | effect on homocysteine-mediated increase in cPLA2 activity (cPLA2)
1 | N[C@@H](CCS)C(=O)O [L-homocysteine] | approximately 7.2 folds | significant increase in PGE2 levels within two hours | progressive increase in expression and release | significantly increases cPLA2 activity with time | – | – | – | –
2 | C[C@H](NC(c1cccc2[nH]c(=O)c(=O)[nH]c12)P(=O)(O)O)c1ccc(Br)cc1 (stereo partly drawn) [NVP-AAM077, ({[(1S)-1-(4-bromophenyl)ethyl]amino}-(2,3-dioxo-1,4-dihydroquinoxalin-5-yl)methyl)phosphonic acid] | – | – | – | – | attenuates homocysteine-induced increase in Fura2 fluorescence ratio and [Ca^2+]i | significantly reduced | attenuates the expression and release of MCP-1 | inhibits homocysteine-mediated increase in cPLA2 activity
3 | C[C@@H](CN1CCC(Cc2ccccc2)CC1)[C@@H](O)c1ccc(O)cc1 [Ro 25-6981] | – | – | – | – | fails to attenuate homocysteine-induced [Ca^2+]i increase | fails to alter homocysteine-induced increase in PGE2 level | – | fails to attenuate homocysteine-mediated increase in cPLA2 activity
